# Experimental data as given in US11160788B2, “Caspase-1 inhibition and uses thereof for prevention and treatment of neurological conditions” (priority 2016, dated 2021).
# Entries after “also recorded” stand apart in the source; their conditions may differ.
# Columns and labels:
# Assay type in all cases: in vivo, mouse
# J20 mice [1] = assay: Barnes maze, preventive treatment of pre-symptomatic J20 mice
# Text: FIG. 23: Barnes maze to assess spatial memory in J20 mice. Barnes maze tested at washout at (a-c) 12 week (6 months of age) and (d-f) 20 week (8 months of age). (a,d) Learning to find the escape hatch over 4 days in seconds. (b,e) Primary latency to reach the escape hatch and primary errors to find the hatch. In (b) One-way ANOVA (F(2,29)=5.948, p=0.0068), in (e) One-way ANOVA (F(2,22)=7.2545, p=0.0038) followed by Dunnett's pot-hoc *p<0.05, ** p<0.01. (c,f) Probe test: number of pokes for each of the 20 holes of the Barnes maze when hatch hole is blocked. T indicates target hole where hatch was accessible during training.
# We directly tested whether pre-symptomatic inhibition of inflammation in a mouse genetic model of Alzheimer disease can stem the progression of memory and behavioral deficits, and Alzheimer disease-like pathology. The J20 amyloid precursor protein Swedish/Indiana mutant mouse was treated at 2 months of age for a one month period with 50 mg/Kg Caspase-1 inhibitor VX-765 (FIG. 22a).
# J20 mice [2] = assay: ELISA of II-1β and other cytokines, treated symptomatic J20 mice
# Text: FIG. 10: VX-765 reverses neuroinflammation in J20 mice. (a) Iba-1 positive microglia immunohistographs in the stratum lacunosum molecular area of the hippocampus and S1 of cortex (Scale bar=50 μm). (b) Stereological quantification of Iba-1^+ microglia for WT+Vehicle (n=6), J20+Vehicle (n=5), and J20+VX-765 (n=4) in the hippocampus from the pyramidal cell layer to the stratum lacunosum molecular layer (F(2,11)=58, p<0.0001) and cortex (F(2,11)=39.95, p<0.0001, ANOVA, Dunnett's post-hoc compared to J20+Vehicle, ***p<0.001). (c) Average percentage distribution of morphological microglial subtypes 1 (black (lowermost) bar), 2 (light grey bar), 3 (dark grey bar) and 4 (black (uppermost) bar). (d) II1-β pg/mg levels measured by ELISA in pre-treated J20 at 5 months of age and in treated WT and J20 8 months of age. (e) Astroglial GFAP^+ immunohistographs.
# FIG. 18: ELISA measures of cytokines in vehicle-treated WT and J20 mice and VX-765-treated J20 mice. (a) Plasma levels of II-1β in mice after T3. (b) Cytokine levels in vehicle-treated WT and J20 and in VX-765-treated J20 brain hippocampi and cortex. (c) GFAP immunostaining density in vehicle-treated WT (n=6) and J20 (n=5) and in VX-765-treated J20 (n=4) brain hippocampi (F(2,12)=5.234, p=0.0232, ANOVA, Dunnett's post-hoc compared to WT+Vehicle, *p<0.05) and cortex. (d) Western blots and quantitative analyses of GFAP in vehicle-treated WT and J20 and in VX-765-treated J20 brain hippocampi and cortex.
# To assess AD-like pathology, immunohistochemical analyses were performed to detect amyloid deposition (anti-AβF25276)^5,6, microglial (Iba1) activation^7, astrogliosis (GFAP), synaptophysin protein levels on coronal brain sections. Multiplex MSD ELISA was used to assess Aβ levels and 38,40, and 42 subtypes, and II-1β brain levels. RT-PCR was used to assess levels of human APP^Sw/Ind.
# J20 mice [3] = assay: Novel object recognition (NOR), treatment of symptomatic J20 mice; conditions: for NOR behavior: 10 mg/kg; for NOR discrimination index: 25 mg/kg; for NOR deficit: 50 mg/kg IP
# Text: FIG. 8: VX-765 treatment restores cognitive function in J20 mice. (a) Experimental paradigm. Intraperitoneal vehicle-injected wild type (WT+Vehicle; n=13) and J20 mice (J20+Vehicle: n=9), and VX-765-injected J20 mice (J20+VX-765: n=9) mice were behaviourally assessed at 5 different time-points: baseline before treatment (baseline untreated J20 were grouped together; n=18), after 3 IP injections/wk of VX-765 or vehicle (Treatment 1), after 6 additional injections over 2 weeks (Treatment 2), after 4-week Washout period, and after an additional 3 injections in one week (Treatment 3). Mice were sacrificed at 8 months of age after Treatment 3 (b) NOR Discrimination index (Treatment main effect, F(2,20)=85.8, p<0.0001; Time main effect, F(4,80)=4.188, p=0.0039; Treatment×Time interaction, F(8,80)=[…], two-way repeated-measures ANOVA, Dunnett's post-hoc compared to J20+Vehicle). (c) Distance traveled during Open Field task. Data analyzed by repeated measures two-way ANOVA (Treatment main effect, F(2,19)=11.47, p=0.0005; Treatment×Time interaction, F(8,76)=5.69, p<0.0001, two-way repeated-measures ANOVA, Dunnett's post-hoc compared to J20+Vehicle). (d-i) Barnes maze analysis. Learning acquisition (d,g), probe test primary latency and errors (e,h), and target hole preference (f,i); # of pokes of each hole labelled +1 to +9 to the right or −1 to −9 to the left of the target hole during the probe) after Treatment 2 (d-f) and Washout (g-i). Probe tests were analyzed (Treatment 2 primary latency, F(2,52)=5.879, p=0.0050; Treatment 2 primary errors, F(2,52)=9.998, p=0.0002; Washout primary latency, F(2,22)=4.076, p=0.0312; Washout primary errors, F(2,22)=10.84, p=0.0005, ANOVA, Tukey's post-hoc). * p<0.05, ***p<0.001, ****p<0.0001.
# […] The 20-week-old mice were treated per the paradigm in section. VX-765 reverses episodic memory deficits in the J20 mouse.
# Anxiety and hyperactivity are monitored in an open-field paradigm, episodic memory with the NOR, spatial memory with the Barnes maze, and short or long term working memory with the Y maze before and after treatments. Repeated measures are acceptable for the NOR, Barnes and Y maze^2-4.
# J20 and littermate WT mice (20 wks) were first tested for episodic memory deficits with Novel Object Recognition (NOR) and anxiety and hyperactivity in an open-field paradigm. […] The injections were continued for 2 weeks at 3 injections/week (48 hr intervals between injections and 3 day interval between weeks) and mice retested. […]
compound,measurement,setting,value
"CCO[C@@H]1OC(=O)C[C@@H]1NC(=O)[C@@H]1CCCN1C(=O)[C@@H](NC(=O)c1ccc(N)c(Cl)c1)C(C)(C)C [VX-765, (S)-1-((S)-2-{[1-(4-amino-3-chloro-phenyl)-methanoyl]-amino}-3,3-dimethyl-butanoyl)-pyrrolidine-2-carboxylic acid ((2R,3S)-2-ethoxy-5-oxo-tetrahydro-furan-3-yl)-amide]",Barnes maze ability to distinguish the target area,J20 mice [1]; 12-week washout,better ability to distinguish the target area
same,Barnes maze primary errors,J20 mice [1]; 12-week washout,corrected this deficit
same,Barnes maze primary latency,J20 mice [1]; 12-week washout (6 months of age),tended towards a better performance
same,Barnes maze identifying the target area in probe test,J20 mice [1]; 20-week washout,performed better than the Vehicle-treated J20 mice
same,Barnes maze learning phase,J20 mice [1]; 20-week washout,performed normally in the learning phase
same,Barnes maze primary latency and primary errors,J20 mice [1]; 20-week washout,did not reach statistical significance
same,TNFα protein level in hippocampi,J20 mice [2],returned to normal
same,II-1β level in hippocampus,"J20 mice [2]; 50 mg/kg, after Treatment 3",reduced after VX-765 treatment
same,II-1β level in plasma,J20 mice [2]; after Treatment 3,No changes were seen
same,"other inflammatory protein levels (TNF-α, KC-GRO, IFN-γ)",J20 mice [2]; brain hippocampi and cortex,No significant difference
same,NOR behavior,J20 mice [3]; Treatment 1 and 2,normalized NOR behavior only after T2
same,NOR behavior,J20 mice [3]; Treatment 3,reappeared after T3
same,NOR behavior,J20 mice [3]; washout,washed out
same,NOR discrimination index,J20 mice [3]; Treatment 1,normalized
same,NOR discrimination index,J20 mice [3]; Treatment 2,normalized
same,NOR discrimination index,J20 mice [3]; Treatment 3,returned to normal at T3
same,NOR discrimination index,J20 mice [3]; washout,deficits reappeared after WO
same,NOR deficit,J20 mice [3]; after 3 injections (Treatment 1),reverted to normal; also recorded: reversed and reached near-normal levels
same,NOR deficit,J20 mice [3]; after 3 more injections (Treatment 3),attenuated NOR deficits; also recorded: disappeared again after T3
same,NOR deficit,J20 mice [3]; after 4-week washout,NOR deficits reappeared; also recorded: reappeared after the WO period
same,NOR deficit,J20 mice [3]; after additional 2 weeks of injections (Treatment 2),continued to perform normally; also recorded: reversed and reached near-normal levels
